Values quoted from earlier work in patent US20180168955A1, “IODINE-CONTAINING ORAL CARE COMPOSITIONS” (priority 2016, published 2018).

II [iodine]
volume of alcohol in which one gram of iodine dissolves (solvent alcohol): 12.5 mL | volume of water in which one gram of iodine dissolves (solvent water): 2950 mL
